Test results taken from US9790211B2, “5-amino-quinoline-8-carboxamide derivatives as 5-HT4 receptor agonists” (SUVEN LIFE SCIENCES LIMITED, priority 2013, dated 2017).

Columns and labels:
[1] = tested on: Aβ1-42; assay: Effect on CSF Aβ1-42 level (ELISA); format: in vivo, Male Sprague Dawley Rat; details: p.o., two hour post treatment
Description: The control group of male rats received a vehicle (reagent grade water) per orally by gavage at a dose volume of 10 mL/kg. The treated groups (6 rat per group) received a single dose of test compound (different doses) or DAPT (50.0 mg/kg). Two hour post dose of vehicle or test compounds, rats were anesthetized with isoflurane and CSF was collected by puncturing Cisterna magna using 0.5 mL syringes by utilizing stereotaxic frame. CSF samples were frozen in liquid nitrogen and stored at −80° C. until ELISA was performed.
• 1. CSF samples were thawed to RT and diluted with Tris Buffer Saline containing protease inhibitors at 1:10 ratio [15:150 μL (15 μL CSF+ 135 μL TBS], • 2. To this diluted CSF samples 0.15 mL of EIA buffer (1:1 ratio) was added. These diluted samples were subjected for Aβ1-42 level measurement by ELISA. Measurement of Aβ1-42 by ELISA Kit:
To investigate the role of an acute treatment of test compound on Aβ1-42 levels, expression of this protein was measured in CSF of treated and untreated rat by ELISA assay. The entire procedure was followed as described in ELISA kit manual (Mouse/Rat […], Cat No: 27720, IBL International, Hamburg, Germany).
Statistical analyses were performed using the Graph Pad Prism (Version 4). Data are Mean±SD of Aβ1-42 levels expressed as percentage of control values (rat which received regent grade water). Values were compared between the different groups by unpaired t test. The significance level was set at *p<0.05; **p<0.01; ***p<0.001.

[2] = tested on: Scopolamine Induced amnesia; assay: Radial arm maze; format: in vivo; details: p.o., rats
Text: The cognition enhancing properties of compounds of formula (I) of this invention were estimated by using this model.
Radial arm maze consists of a central hub of 45 cm diameter. Each arm was of dimension 42.5×15×24 cm. The maze was elevated to a height of 1 m above the ground. The animals were placed on a restricted diet until they reached approximately 85% of their free feeding weight. During this diet restriction period animals were habituated to the novel feed (pellets). Once the rats reached approximately 85% of their free feeding weight rats were habituated to the maze on the 1st and 2nd day. […] Animals were randomized on day 2. On the subsequent days the treatment was given as per the allotment: Each animal was introduced into the maze individually for a period of 10 minutes. The arms were baited only once and the animal had to learn the rule that repeated arm entries would not be rewarded. The trial ended once the rat had visited 16 arms or 10 minutes were over or all the pellets were eaten. The arm entries were recorded using the software. Once the trial was over the rat was removed and the maze was cleaned using soap water.

[3] = tested on: acetylcholine levels in ventral hippocampus; assay: Modulation of acetylcholine from the ventral hippocampus (microdialysis); format: in vivo, male Wistar rats; details: p.o.
Text: Male Wistar rats (240-300 gram body weights) were stereotaxically implanted with a microdialysis guide cannula in the ventral hippocampus (AP: −5.2 mm, ML: +5.0 mm, DV: −3.8 mm). Co-ordinates were taken according to Paxinos and Watson (2007) with reference points taken from bregma and vertical from the skull. The rats were allowed to recover individually for five days in a round bottom Plexiglas bowl with free access to feed and water.
One day prior to the microdialysis experiment, rats were connected to a dual quartz lined two-channel liquid swivel (Instech, UK) on a counter balance lever arm, which allowed unrestricted movements of the animal. […]
On the day of study, probe was perfused at a constant flow rate of […] with artificial cerebrospinal fluid (aCSF; NaCl 147 mM, KCl 3.0 mM, MgCl2 1.0 mM, CaCl2. 2H2O 1.3 mM, NaH2PO4.2H2O 0.2 mM and Na2HPO4. 7H2O 1.0 mM, pH 7.2). […] Dialysates were stored below −70° C. until quantitation of acetylcholine.
Acetylcholine in dialysate was quantified in the calibration range of 0.103 nmol-103.497 nmol using LC-MS/MS method.
All microdialysis data were plotted as percent change from mean dialysate basal concentrations with 100% defined as the average of five predose values. The AUC was calculated by trapezoidal rule using WinNonlin (5.0.1 version. Pharsight Corp. CA). […]

Compound	decrease in the rat CSF Aβ1-42 levels ([1]; 0.03 mg/kg) [%]	decrease in the rat CSF Aβ1-42 levels ([1]; 0.1 mg/kg) [%]	decrease in the rat CSF Aβ1-42 levels ([1]; 0.3 mg/kg) [%]	decrease in the rat CSF Aβ1-42 levels ([1]; 1.0 mg/kg) [%]	decrease in the rat CSF Aβ1-42 levels ([1]; 3.0 mg/kg) [%]	Reversal of Scopolamine Induced amnesia - Effective dose range [2]	Area under the curve of acetylcholine change, ventral hippocampus (in words) ([3]; 10.0 mg/kg, vs vehicle, p<0.01)	acetylcholine levels from the ventral hippocampus (in words) ([3]; 3.0 and 10.0 mg/kg, male Wistar rats)
Nc1c(Cl)cc(C(=O)NCC2CCN(CC3CCOCC3)CC2)c2ncccc12.O=C(O)/C=C/C(=O)O [Example 1, 5-Amino-6-chloro-N-{[1-(tetrahydro-2H-pyran-4-ylmethyl)-4-piperidinyl]methyl}quinoline-8-carboxamide hemifumarate]	25	21	35	22	26			
Nc1c(Cl)cc(C(=O)NCC2CCN(CC3CCOCC3)CC2)c2ncccc12.O=C(O)C(O)C(O)C(=O)O [Example 13, 5-Amino-6-chloro-N-{[1-(tetrahydro-2H-pyran-4-ylmethyl)-4-piperidinyl]methyl} quinoline-8-carboxamide L(+)-tartarate]						0.1-1 mg/kg, p.o.	significant	dose dependent increase
